The target of the test is Intestinal-type alkaline phosphatase (Mus musculus, UniProt P24822). Briefly: PubChem AID 488875.

SMILES strings stand for the structures.

Chain of Intestinal-type alkaline phosphatase (P24822 whole entry, looked up): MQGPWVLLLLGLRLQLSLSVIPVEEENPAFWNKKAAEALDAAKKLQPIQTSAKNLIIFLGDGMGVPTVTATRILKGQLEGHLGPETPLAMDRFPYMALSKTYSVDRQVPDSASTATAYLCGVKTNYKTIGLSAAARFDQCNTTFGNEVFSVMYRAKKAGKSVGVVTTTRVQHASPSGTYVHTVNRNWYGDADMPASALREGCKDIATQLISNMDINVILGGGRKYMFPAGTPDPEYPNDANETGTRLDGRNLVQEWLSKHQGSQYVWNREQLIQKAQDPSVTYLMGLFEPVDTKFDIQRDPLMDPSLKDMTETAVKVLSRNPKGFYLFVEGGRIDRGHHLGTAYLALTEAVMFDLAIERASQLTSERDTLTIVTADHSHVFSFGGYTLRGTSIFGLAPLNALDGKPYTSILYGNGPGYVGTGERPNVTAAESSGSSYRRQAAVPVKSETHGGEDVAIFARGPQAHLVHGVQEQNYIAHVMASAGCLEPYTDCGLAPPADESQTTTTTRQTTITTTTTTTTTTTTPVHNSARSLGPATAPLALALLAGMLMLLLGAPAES

In general, EC50 refers to the concentration at which the effect is half-maximal. `C=c1[nH]n(-c2nc3ccccc3[nH]2)c(=O)c1=CN(C)C` [(4E)-2-(1H-benzimidazol-2-yl)-4-(dimethylaminomethylidene)-5-methyl-pyrazol-3-one] showed an EC50 of more than 100 µM.

For the compound `COc1cccc(C=NNC(=O)c2[nH][nH]c(=O)c2C)c1O` [N'-[(E)-(5-methoxy-6-oxidanylidene-cyclohexa-2,4-dien-1-ylidene)methyl]-4-methyl-5-oxidanylidene-1,4-dihydropyrazole-3-carbohydrazide], the EC50 was more than 100 µM.

The compound `Cn1c(C(C#N)C(=O)c2ccc(Br)s2)nc2ccccc21` (centres undefined) [MLS001167394] yielded an EC50 of more than 100 µM.

On to `CCc1ccc(CN=Nc2ncnc3nc[nH]c23)cc1` [MLS000419199], for which the EC50 is more than 100 µM.

Source of the values: BindingDB's records for doi:10.7270/Q21Z42V4 (Burnham Center For Chemical Genomics, 2010).
